In patent US20210292680A1, “MULTIFUNCTIONAL AROMATIC ALCOHOLS FOR PERSONAL CARE, HOME CARE AND INDUSTRIAL AND INSTITUTIONAL COMPOSITIONS” (EMERALD KALAMA CHEMICAL, LLC, priority 2018, published 2021):

How the values were obtained:
[1] = Shear ramp, aqueous solution (viscosity); type: physicochemical; conditions: hand dish wash
Method: Shear Ramp aqueous solution: The 40 mm cone and plate geometry was used on an AR2000ex rheometer at 25° C. A gap of 29 μm was used. The shear was ramped from 0 s^−1 to 2000 s^−1 over six minutes. Shear rate is expressed in s^−1 or 1/s. Viscosity readings are expressed in Pa·s.
At 0.5 wt. %, the low shear viscosity increased roughly 36% over the control, while high shear viscosity increased roughly 43%. (Results not shown.)
R=4 Aromatic Alcohols. Similarly, viscosity modifying behavior is observed in a hand dish wash aqueous surfactant solution using an aromatic alcohol, where R=4 carbons (2-methyl-3-phenylpropanol). […] For 0.5 wt. % aromatic alcohol, the low shear viscosity increased 110% over the control, while high shear viscosity increased approximately 37%. At 1.0 wt. % aromatic alcohol, the viscosity profile changed, yielding increases in low and high shear viscosity of 56% and 94%, respectively.

[2] = Process defoaming evaluation (modified ASTM E2407-04); conditions: 0.4 wt. % aromatic alcohol; 2.0 wt. % BioSoft N1-7 solution
Method: Defoaming evaluation: Process defoaming was tested using a modified ASTM method (E2407-04 (2015) Standard Test Method for Effectiveness of Defoaming Agents). 250 mL of a 2.0 wt. % surfactant solution was blended at the highest speed setting for 30 seconds, then let sit for 3 minutes. The initial foam height is measured, and then 0.4 wt. % defoamer is dropped onto the surface of the foam. The blender is turned on low speed and the solution is mixed for 1 minute. Foam height is re-measured after an additional five minutes of sitting.
Process defoaming was tested using a modified ASTM method (E2407-04 (2015) Standard Test Method for Effectiveness of Defoaming Agents) to assess surfactants and determine if there was a relationship between foam destabilization and surfactant type. Two different surfactant solutions were tested. 2.0 wt. % surfactant solutions were prepared as controls using BioSoft® N1-7 and SLES. Thereafter, 0.4 wt. % aromatic alcohols (R=3 and R=4) were added to each surfactant solution for comparison to the controls. After agitation to generate foam, the percent of initial foam volume loss was far less for the control (without aromatic alcohols).

Time to dissolve = type: physicochemical; conditions: water with 1 wt. % aromatic alcohol
Method: Time to dissolve: Aromatic alcohol, 1% by weight, was added to deionized water to make 500 mL of solution. Stirring was started at 300 rpm. Test ingredient was added to both a 500 mL control deionized water and the 500 mL aromatic alcohol solution as a stopwatch timer was started. The timer was stopped when solution was completely clear and/or no particles of the test ingredient were visible in either sample. This is noted as the “dissolution time”, or time to dissolve. Aromatic alcohols can help solubilize hard-to-dissolve formulation ingredients more quickly and/or without the use of heat. The addition of 1.0 wt. % aromatic alcohol decreased the dissolution time of several common, hard-to-dissolve ingredients as shown in Table 1 below. Table 1 reflects the time to completely dissolve ingredients in water (Control) or water with 1 wt. % aromatic alcohol (R=3 denotes 3-phenylpropanol; R=4 denotes 2-methyl-3-phenylpropanol).

[3] = Shear ramp, oil-in-water emulsion (viscosity); type: physicochemical; conditions: Vanicream skin lotion, concentrations up to 0.5 wt. % aromatic alcohol, 25° C
Method: Shear Ramp oil-in-water emulsion: A 25 mm parallel plate geometry was used on an AR2000ex rheometer at 25° C. A gap of 600 μm was used. The shear was ramped from 0 s^−1 to 100 s^−1 over one minute. Viscosity readings are expressed in Pa·s.
R=3 Aromatic Alcohol. An R=3 aromatic alcohol, i.e., 3-phenylpropanol, was tested in a commercial oil-in-water emulsion, i.e., Vanicream® skin lotion, at 0.1 wt. %, 0.25 wt. % and 0.5 wt. % addition and compared to a control (without aromatic alcohol). […] The low shear (at 10 s^−1) viscosity was increased 68% over the control, while high shear viscosity (at 70 s^−1) increased roughly 100% (FIG. 1). The increase in high and low shear viscosity achieved desirable rheological traits such as richness, creaminess, and enhanced texture and skin feel in this end use personal care product with the addition of the aromatic alcohol. This unexpected result allows personal care and home care formulators, among others, to reduce or eliminate use of separate rheology modifiers to manipulate the viscosity of the final product.

[4] = Final product foam stability (Blender Foam Volume/Drainage method); conditions: 0.5 wt. % aromatic alcohol incorporated into products
Method: Final product foam stability was tested using Blender Foam Volume/Drainage method published by Henkel Corp. 1981.
In the foam loss evaluation above, foam destabilization occurred at the time of addition (with mixing) of the aromatic alcohol. Further testing was performed to determine if the foaming ability of final products would be negatively impacted if aromatic alcohols were added to the formulations during the production process. A variety of commercial products were selected for testing, and 0.5 wt. % of aromatic alcohol (R=3, 3-phenylpropanol) was added to each. […] Foam stability of these commercial products was not reduced by the addition of aromatic alcohol.

[5] = Formulation stability of general purpose cleaner on storage; type: physicochemical; conditions: 0.5 wt. % aromatic alcohol; pH 7; 7 days at 22° C.
Text: Rapid and complete dissolution of raw materials into aqueous solutions can prevent problems with solution instability over time. For example, a general purpose cleaner containing sodium coco fatty alcohol sulfate and 0.1 wt. % of either hydroxyethyl cellulose or xanthan gum (Table 2) becomes unstable over time across a range of pH values.
Panel (b) of FIG. 10 compares a general purpose cleaner containing hydroxyethyl cellulose at pH 7 with (right side of panel) and without (left side of panel) the use of 0.5 wt. % aromatic alcohol, stored at room temperature for one week, then shaken to disperse precipitants. Panel (c) of FIG. 10 compares a general purpose cleaner containing xanthan gum at pH 5 with (right side of panel) and without (left side of panel) the use of 0.5 wt. % aromatic alcohol (right,) stored at room temperature for one week, then shaken to disperse precipitants.
Similar observations were made with formulations of a general purpose cleaner in the absence of hydroxyethyl cellulose or xanthan gum but containing sodium coco fatty alcohol sulfate surfactant (FIG. 11). FIG. 11 compares a sample of a general purpose cleaner at pH 7 with and without 0.5 wt. % aromatic alcohol (R=3, 3-phenylpropanol). […]

[6] = Coco fatty alcohol sulfate 2.0 wt. %

| high shear viscosity increase over the control ([1]; 0.5 wt. % aromatic alcohol) | low shear viscosity increase over the control ([1]; 0.5 wt. % aromatic alcohol) | high shear viscosity increase over the control ([1]; 1.0 wt. % aromatic alcohol) [%] | low shear viscosity increase over the control ([1]; 1.0 wt. % aromatic alcohol) [%] | foam destabilization (foam loss, % of initial foam volume) [2] | Time to Dissolve at 22° C. (Time to dissolve; 1,2-octanediol 1.0 wt. %) [min] | Time to Dissolve at 22° C. (Time to dissolve; [6]) [min] | low shear viscosity increase over the control ([3]; at 10 s^-1) [%] | high shear viscosity increase over the control ([3]; at 70 s^-1) | foam stability of commercial products [4] | homogeneity of general purpose cleaner without hydroxyethyl cellulose or xanthan gum, containing coco fatty alcohol sulfate [5] | Compound |
| --- | --- | --- | --- | --- | --- | --- | --- | --- | --- | --- | --- |
| approximately 37% | 110% | 94 | 56 | significantly destabilized foam | 7.8 | 3.5 | – | – | – | – | CC(CO)Cc1ccccc1 (stereo not shown) [2-methyl-3-phenylpropanol] |
| roughly 43% | roughly 36% | – | – | significantly destabilized foam | 8.1 | 4.0 | 68 | roughly 100% | not reduced | remained homogeneous | OCCCc1ccccc1 [3-phenylpropanol] |
